Measured values as given in paper PMC12406256, “Food Additives Inhibit Intestinal Drug Transporters but Have Limited Effect on In Vitro Drug Permeability” (Molecular Pharmaceutics, 2025).
pIC50: −log10 of the molar value.

How the values were obtained:
MRP2 = target: T1, MRP2 (Homo sapiens, UniProt Q92887); assay: Vesicular transport assay, MRP2 (CDCF substrate); type: biochemical; settings: food additive 50 μM; CDCF 5 μM; n = 1
T1 construct: made in house; host or cells: Spodoptera frugiperda Sf9 cells, crude membrane vesicles
T1 sequence (Q92887 whole entry): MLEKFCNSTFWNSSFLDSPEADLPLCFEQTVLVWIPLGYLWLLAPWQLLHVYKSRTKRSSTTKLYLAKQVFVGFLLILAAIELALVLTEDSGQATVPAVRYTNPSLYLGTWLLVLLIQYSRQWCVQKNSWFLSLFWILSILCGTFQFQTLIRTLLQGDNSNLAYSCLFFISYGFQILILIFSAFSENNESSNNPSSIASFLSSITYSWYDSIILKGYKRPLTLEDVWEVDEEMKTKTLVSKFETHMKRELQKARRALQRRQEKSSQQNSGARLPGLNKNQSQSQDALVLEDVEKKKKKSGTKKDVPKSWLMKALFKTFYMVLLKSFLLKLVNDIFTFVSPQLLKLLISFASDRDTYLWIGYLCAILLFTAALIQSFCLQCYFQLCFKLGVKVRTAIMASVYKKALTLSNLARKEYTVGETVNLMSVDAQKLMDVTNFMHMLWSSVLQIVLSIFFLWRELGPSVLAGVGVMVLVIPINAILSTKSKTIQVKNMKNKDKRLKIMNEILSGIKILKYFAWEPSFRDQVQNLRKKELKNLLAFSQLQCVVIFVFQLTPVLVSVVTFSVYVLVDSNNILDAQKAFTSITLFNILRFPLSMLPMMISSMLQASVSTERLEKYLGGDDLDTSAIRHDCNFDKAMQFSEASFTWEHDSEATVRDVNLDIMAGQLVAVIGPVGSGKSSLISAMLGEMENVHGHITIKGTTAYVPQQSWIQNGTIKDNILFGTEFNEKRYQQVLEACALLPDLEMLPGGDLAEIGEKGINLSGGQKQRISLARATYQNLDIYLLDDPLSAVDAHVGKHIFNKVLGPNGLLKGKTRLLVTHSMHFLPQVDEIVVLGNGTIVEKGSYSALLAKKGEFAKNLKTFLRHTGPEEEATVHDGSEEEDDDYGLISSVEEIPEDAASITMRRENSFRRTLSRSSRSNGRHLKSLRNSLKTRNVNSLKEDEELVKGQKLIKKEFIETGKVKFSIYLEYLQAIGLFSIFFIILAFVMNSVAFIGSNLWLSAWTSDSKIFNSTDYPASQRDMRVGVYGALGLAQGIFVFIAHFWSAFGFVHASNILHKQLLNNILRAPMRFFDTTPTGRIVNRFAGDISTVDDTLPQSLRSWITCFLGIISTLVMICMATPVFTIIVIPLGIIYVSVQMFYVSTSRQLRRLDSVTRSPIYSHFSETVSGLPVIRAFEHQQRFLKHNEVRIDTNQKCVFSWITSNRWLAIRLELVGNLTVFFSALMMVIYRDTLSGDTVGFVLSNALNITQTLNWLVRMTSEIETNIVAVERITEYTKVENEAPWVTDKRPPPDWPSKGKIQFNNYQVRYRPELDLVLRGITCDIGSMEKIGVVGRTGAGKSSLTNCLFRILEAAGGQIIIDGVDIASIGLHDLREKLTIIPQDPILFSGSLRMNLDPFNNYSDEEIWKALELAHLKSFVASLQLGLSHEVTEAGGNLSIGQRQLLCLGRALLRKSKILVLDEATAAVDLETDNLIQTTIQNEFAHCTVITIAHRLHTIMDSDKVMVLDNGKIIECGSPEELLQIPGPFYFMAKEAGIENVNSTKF

P-gp [1] = target: T2, P-gp (Homo sapiens, UniProt P08183); assay: Vesicular transport assay, P-gp (N-methyl-quinidine substrate)
T2 sequence (P08183 whole entry): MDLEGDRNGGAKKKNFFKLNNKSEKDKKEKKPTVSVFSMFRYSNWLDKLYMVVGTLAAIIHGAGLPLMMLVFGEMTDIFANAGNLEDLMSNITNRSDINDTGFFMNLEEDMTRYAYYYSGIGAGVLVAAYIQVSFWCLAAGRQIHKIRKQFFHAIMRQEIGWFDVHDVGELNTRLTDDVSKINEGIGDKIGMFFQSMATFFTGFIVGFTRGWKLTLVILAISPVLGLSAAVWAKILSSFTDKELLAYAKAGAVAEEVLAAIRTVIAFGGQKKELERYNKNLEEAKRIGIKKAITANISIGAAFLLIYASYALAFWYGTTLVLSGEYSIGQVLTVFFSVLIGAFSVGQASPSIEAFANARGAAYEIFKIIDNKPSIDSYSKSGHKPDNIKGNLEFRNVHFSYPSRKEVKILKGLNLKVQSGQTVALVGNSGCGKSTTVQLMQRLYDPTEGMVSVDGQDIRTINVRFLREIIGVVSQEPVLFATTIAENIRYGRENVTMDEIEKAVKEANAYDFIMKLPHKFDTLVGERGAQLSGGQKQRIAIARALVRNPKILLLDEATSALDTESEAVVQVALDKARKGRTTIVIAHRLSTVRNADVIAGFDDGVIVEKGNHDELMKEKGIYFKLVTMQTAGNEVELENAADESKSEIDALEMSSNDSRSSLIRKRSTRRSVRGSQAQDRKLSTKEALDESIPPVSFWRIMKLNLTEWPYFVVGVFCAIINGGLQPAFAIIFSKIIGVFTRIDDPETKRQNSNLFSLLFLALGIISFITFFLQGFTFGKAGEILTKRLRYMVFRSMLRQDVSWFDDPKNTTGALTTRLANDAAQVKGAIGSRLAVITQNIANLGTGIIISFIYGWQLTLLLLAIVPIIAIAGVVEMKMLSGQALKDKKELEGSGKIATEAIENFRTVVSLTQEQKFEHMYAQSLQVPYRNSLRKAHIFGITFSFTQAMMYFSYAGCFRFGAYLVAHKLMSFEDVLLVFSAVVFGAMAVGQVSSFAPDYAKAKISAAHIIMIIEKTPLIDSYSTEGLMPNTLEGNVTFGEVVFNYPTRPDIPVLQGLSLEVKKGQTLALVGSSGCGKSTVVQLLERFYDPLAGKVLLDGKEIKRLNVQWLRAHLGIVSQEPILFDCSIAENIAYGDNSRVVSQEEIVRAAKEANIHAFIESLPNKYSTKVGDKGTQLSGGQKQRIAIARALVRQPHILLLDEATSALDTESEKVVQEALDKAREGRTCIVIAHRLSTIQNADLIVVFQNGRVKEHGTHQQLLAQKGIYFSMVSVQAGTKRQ

BCRP [2] = target: T3, BCRP (Homo sapiens, UniProt Q9UNQ0); settings: cited from earlier work
T3 sequence (Q9UNQ0 1-655): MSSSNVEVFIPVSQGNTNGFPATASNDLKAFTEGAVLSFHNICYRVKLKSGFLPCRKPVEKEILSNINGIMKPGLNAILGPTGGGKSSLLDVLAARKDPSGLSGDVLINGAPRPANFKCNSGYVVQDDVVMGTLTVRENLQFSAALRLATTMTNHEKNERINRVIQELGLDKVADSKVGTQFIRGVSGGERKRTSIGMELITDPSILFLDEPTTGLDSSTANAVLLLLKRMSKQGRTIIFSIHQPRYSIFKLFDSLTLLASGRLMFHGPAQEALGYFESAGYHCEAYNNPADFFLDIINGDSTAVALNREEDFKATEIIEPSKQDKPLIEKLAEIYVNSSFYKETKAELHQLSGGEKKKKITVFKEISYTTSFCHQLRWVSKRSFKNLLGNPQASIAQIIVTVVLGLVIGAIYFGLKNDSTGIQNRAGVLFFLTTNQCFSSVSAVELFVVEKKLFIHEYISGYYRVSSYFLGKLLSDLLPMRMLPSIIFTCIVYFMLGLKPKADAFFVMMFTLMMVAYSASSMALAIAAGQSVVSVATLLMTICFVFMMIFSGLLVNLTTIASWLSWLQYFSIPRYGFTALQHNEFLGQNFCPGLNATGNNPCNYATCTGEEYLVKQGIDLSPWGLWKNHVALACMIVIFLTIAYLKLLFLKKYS

BCRP [3] = target: T3, BCRP; assay: Vesicular transport assay, BCRP (Lucifer yellow substrate); type: biochemical; set-up: made in house; host or cells: Spodoptera frugiperda Sf9 cells, crude membrane vesicles
P-gp [4] = target: T2, P-gp; set-up: made in house; host or cells: Spodoptera frugiperda Sf9 cells, crude membrane vesicles; settings: Caco-2 cells; ref previous studies; cited from earlier work
OATP2B1 = target: T4, OATP2B1 (Homo sapiens, UniProt O94956); assay: HEK293 uptake assay, OATP2B1 (5-carboxyfluorescein substrate); type: cell-based
T4 construct: expressed in transfected cells; host or cells: HEK293 cells (ATCC) transduced with recombinant OATP2B1 baculovirus
T4 sequence (O94956 1-709): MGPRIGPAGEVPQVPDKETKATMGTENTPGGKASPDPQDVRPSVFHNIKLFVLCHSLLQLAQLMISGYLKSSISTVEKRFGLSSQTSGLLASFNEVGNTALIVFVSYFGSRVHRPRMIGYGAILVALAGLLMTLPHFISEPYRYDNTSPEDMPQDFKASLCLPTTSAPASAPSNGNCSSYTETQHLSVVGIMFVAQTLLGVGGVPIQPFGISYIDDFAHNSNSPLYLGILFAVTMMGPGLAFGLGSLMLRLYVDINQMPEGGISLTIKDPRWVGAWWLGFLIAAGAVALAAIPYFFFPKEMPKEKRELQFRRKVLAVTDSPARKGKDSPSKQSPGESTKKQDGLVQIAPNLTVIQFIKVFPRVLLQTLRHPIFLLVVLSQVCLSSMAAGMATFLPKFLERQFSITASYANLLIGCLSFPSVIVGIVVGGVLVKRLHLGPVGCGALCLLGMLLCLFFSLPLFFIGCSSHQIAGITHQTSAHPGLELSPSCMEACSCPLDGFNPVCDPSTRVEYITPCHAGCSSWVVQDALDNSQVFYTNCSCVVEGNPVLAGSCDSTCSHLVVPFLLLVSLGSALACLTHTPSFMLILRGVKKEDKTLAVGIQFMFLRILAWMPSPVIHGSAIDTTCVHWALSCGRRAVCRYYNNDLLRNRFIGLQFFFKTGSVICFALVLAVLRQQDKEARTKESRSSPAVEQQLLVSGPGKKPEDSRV
Experimental: The inhibition of OATP2B1 was studied using a HEK293 cell-based uptake assay. HEK293 cells were cultured in DMEM supplemented with 10% FBS at 37 °C and 5% CO2 and seeded at 22,500 cells/well on 96-well plates coated with 0.1 mg/mL poly-D-lysine. After 24 h, the medium was replaced with a transduction mix (DMEM with 10% FBS, 5 mM sodium butyrate, and recombinant OATP2B1 or enhanced yellow fluorescent protein [eYFP, negative control] baculoviruses). The baculoviruses were produced as previously described. The uptake assay was performed after approximately 48 h. […] Test solutions also contained the substrate. Cells were washed with warm transport buffer and preincubated at 37 °C. Preincubation solutions were replaced with test solutions and incubated at 37 °C with shaking at 250 rpm. Transport was terminated by aspirating the test solution and washing the wells with an ice-cold transport buffer (150 μL) three times. Wells were left to dry, and cells were lysed with 0.1 M NaOH. […] Total protein concentration was measured from six random wells with a Pierce Coomassie (Bradford) Assay kit (Thermo Fisher Scientific) to ensure a similar protein concentration in the OATP2B1 and eYFP wells.

Caco-2 cells = tested on: Caco-2 cells; set-up: method as in not given; settings: micellar formulation, ref not given; cited from earlier work

## CC1=C(/C=C/C(C)=C/C=C/C(C)=C/C=C/C=C(C)/C=C/C=C(C)/C=C/C2=C(C)CCCC2(C)C)C(C)(C)CCC1 [beta-carotene]
MRP2
  inhibition of MRP2 substrate accumulation: did not inhibit
P-gp [1]
  pIC50: 5.49
P-gp [1]; Sf9-derived crude membrane vesicles expressing P-gp, pH 7, probe N-methyl-quinidine 2 μM
  inhibition at 50 μM: ≥ 50%
BCRP [2]
  BCRP inhibition potency: weak inhibition potency
BCRP [3]; Lucifer yellow 50 μM, membrane vesicles, n = 3, read-out: IC50 (95% CI), BCRP
  pIC50: 4.92
BCRP [3]; Sf9-derived crude membrane vesicles expressing BCRP, pH 7, probe Lucifer yellow 50 μM, food additive 50 μM, n = 1, read-out: inhibition of BCRP substrate accumulation
  inhibition at 50 μM: ≥ 50%
P-gp [4]
  P-gp inhibition in Caco-2 cells: inhibitor of P-gp
OATP2B1; 5-carboxyfluorescein 2 μM, HEK293 cells, pH 6, n = 3, read-out: IC50 (95% CI), OATP2B1
  pIC50: 4.56
OATP2B1; human, HEK293 cells transduced with recombinant OATP2B1 baculovirus, pH 6, probe 5-carboxyfluorescein 2 μM, food additive 50 μM, n = 1, read-out: inhibition of OATP2B1-mediated uptake
  inhibition at 50 μM: ≥ 50%
Caco-2 cells
  applied dose recovered in the basolateral chamber: ≤ 35%
